Kd data for 5 molecules are collected here from ChEMBL document CHEMBL1833808, “Identification of novel BRAF kinase inhibitors with structure-based virtual screening” (Bioorg Med Chem Lett, 2011).

Chain of Serine/threonine-protein kinase B-raf (P15056 whole entry): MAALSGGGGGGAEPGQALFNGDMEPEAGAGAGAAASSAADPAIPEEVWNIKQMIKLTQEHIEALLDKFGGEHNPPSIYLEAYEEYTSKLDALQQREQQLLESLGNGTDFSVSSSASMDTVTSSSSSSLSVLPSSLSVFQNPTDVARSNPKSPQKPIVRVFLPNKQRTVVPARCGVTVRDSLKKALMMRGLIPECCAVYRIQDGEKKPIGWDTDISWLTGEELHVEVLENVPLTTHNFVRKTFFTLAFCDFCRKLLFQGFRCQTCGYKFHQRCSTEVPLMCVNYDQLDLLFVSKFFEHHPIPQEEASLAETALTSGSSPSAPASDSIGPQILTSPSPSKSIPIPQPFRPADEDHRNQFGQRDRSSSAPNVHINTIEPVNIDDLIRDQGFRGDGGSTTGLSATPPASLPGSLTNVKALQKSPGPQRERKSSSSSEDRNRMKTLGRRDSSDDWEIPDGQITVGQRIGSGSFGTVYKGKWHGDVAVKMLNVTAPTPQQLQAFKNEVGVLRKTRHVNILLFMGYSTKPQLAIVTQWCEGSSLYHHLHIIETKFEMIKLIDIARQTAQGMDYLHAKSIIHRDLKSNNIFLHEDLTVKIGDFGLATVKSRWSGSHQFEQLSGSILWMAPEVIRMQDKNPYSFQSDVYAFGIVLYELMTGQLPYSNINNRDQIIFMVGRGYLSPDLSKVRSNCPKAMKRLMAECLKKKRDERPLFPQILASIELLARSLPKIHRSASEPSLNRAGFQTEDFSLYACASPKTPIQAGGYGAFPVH

This assay addresses Serine/threonine-protein kinase B-raf (Homo sapiens, UniProt P15056). The assay is described as follows: Inhibition of BRAF.
In turn, `NC(=O)c1ccc(Nc2nnc(-c3ccc(O)cc3)c3ccccc23)cc1` gave a Kd of 2.1 µM. That is a single-digit micromolar value.
For `CCOC(=O)c1cccc(Nc2nc(N)nc3[nH]cnc23)c1`, the Kd is 0.7 µM.
`O=C1N/C(=N\c2ccc(O)cc2)S/C1=C\c1c[nH]c2ccccc12` had a Kd of 18.5 µM.
`Cc1ccc(/C=C/c2nc(N)nc(-c3ccccc3O)n2)o1`: binding was characterised by a dissociation constant (Kd) of 20 µM. The Kd values of the last two molecules are within 1.5-fold of each other.
Consider `Cc1ccc(CNC(=O)c2c(N)n(-c3cccc(O)c3)c3nc4ccccc4nc23)cc1`, for which binding was characterised by a dissociation constant (Kd) of 12.6 µM.

As usually defined, the Kd is the constant that tells how readily two partners part at equilibrium. A lower Kd goes with a tighter complex.
